Here are results for 2 compounds from ChEMBL document CHEMBL3046620, “Resistance monitoring to deltamethrin and chlorpyriphos-ethyl in 13 populations of Typhlodromus pyri Scheuten (Acari: Phytoseiidae) from vineyards in the southwest of France” (2008).

Common to all, as to format: functional
The subject of experiment [1] is Typhlodromus pyri. Briefly: Miticidal activity against compound treated Phaseolus vulgaris leaf-fed female Typhlodromus pyri Scheuten 3 assessed as mortality at 855 mg/l sprayed on leaf disks measured after 3 days. The note with it: Scheuten 3, foliar, 72 h.
Experiment [2] relates to Typhlodromus pyri. Briefly: Miticidal activity against compound treated Phaseolus vulgaris leaf-fed female Typhlodromus pyri Scheuten 7 assessed as mortality at 855 mg/l sprayed on leaf disks measured after 3 days. The conditions noted are these: Scheuten 7, foliar, 72 h.
The subject of experiment [3] is Typhlodromus pyri. Kind of experiment: Miticidal activity against compound treated Phaseolus vulgaris leaf-fed female Typhlodromus pyri Scheuten 2 assessed as mortality at 855 mg/l sprayed on leaf disks measured after 3 days. The conditions noted are these: Scheuten 2, foliar, 72 h.
In experiment [4] the test system is Typhlodromus pyri. Briefly: Miticidal activity against compound treated Phaseolus vulgaris leaf-fed female Typhlodromus pyri Scheuten 4 assessed as mortality at 855 mg/l sprayed on leaf disks measured after 3 days. The conditions noted are these: Scheuten 4, foliar, 72 h.
For experiment [5], the system named is Typhlodromus pyri. Kind of experiment: Miticidal activity against compound treated Phaseolus vulgaris leaf-fed female Typhlodromus pyri Scheuten 9 assessed as mortality at 855 mg/l sprayed on leaf disks measured after 3 days. The note with it: Scheuten 9, foliar, 72 h.
Experiment [6] concerns Typhlodromus pyri. Briefly: Miticidal activity against compound treated Phaseolus vulgaris leaf-fed female Typhlodromus pyri Scheuten 5 assessed as mortality at 855 mg/l sprayed on leaf disks measured after 3 days. The note with it: Scheuten 5, foliar, 72 h.
Experiment [7] relates to Typhlodromus pyri. Briefly: Miticidal activity against compound treated Phaseolus vulgaris leaf-fed female Typhlodromus pyri Scheuten 8 assessed as mortality at 855 mg/l sprayed on leaf disks measured after 3 days. The note with it: Scheuten 8, foliar, 72 h.
For experiment [8], the system named is Typhlodromus pyri. Kind of experiment: Miticidal activity against compound treated Phaseolus vulgaris leaf-fed female Typhlodromus pyri Scheuten 12 assessed as mortality at 855 mg/l sprayed on leaf disks measured after 3 days. The note with it: Scheuten 12, foliar, 72 h.
The subject of experiment [9] is Typhlodromus pyri. Kind of experiment: Miticidal activity against compound treated Phaseolus vulgaris leaf-fed female Typhlodromus pyri Scheuten 6 assessed as mortality at 855 mg/l sprayed on leaf disks measured after 3 days. The note with it: Scheuten 6, foliar, 72 h.
The subject of experiment [10] is Typhlodromus pyri. Briefly: Miticidal activity against compound treated Phaseolus vulgaris leaf-fed female Typhlodromus pyri Scheuten 10 assessed as mortality at 855 mg/l sprayed on leaf disks measured after 3 days. The note with it: Scheuten 10, foliar, 72 h.
In experiment [11] the test system is Typhlodromus pyri. Briefly: Miticidal activity against compound treated Phaseolus vulgaris leaf-fed female Typhlodromus pyri Scheuten 11 assessed as mortality at 855 mg/l sprayed on leaf disks measured after 3 days. The conditions noted are these: Scheuten 11, foliar, 72 h.
The test system of experiment [12] is Typhlodromus pyri. Briefly: Miticidal activity against compound treated Phaseolus vulgaris leaf-fed female Typhlodromus pyri Scheuten 13 assessed as mortality at 855 mg/l sprayed on leaf disks measured after 3 days. The conditions noted are these: Scheuten 13, foliar, 72 h.
Experiment [13] deals with Typhlodromus pyri. Briefly: Miticidal activity against compound treated Phaseolus vulgaris leaf-fed female Typhlodromus pyri Scheuten 1 assessed as mortality at 855 mg/l sprayed on leaf disks measured after 3 days. The conditions noted are these: Scheuten 1, foliar, 72 h.
The test system of experiment [14] is Typhlodromus pyri. Briefly: Miticidal activity against compound treated Phaseolus vulgaris leaf-fed female Typhlodromus pyri Scheuten 4 assessed as mortality at 17.5 mg/l sprayed on leaf disks measured after 3 days. The conditions noted are these: Scheuten 4, foliar, 72 h.
The subject of experiment [15] is Typhlodromus pyri. Kind of experiment: Miticidal activity against compound treated Phaseolus vulgaris leaf-fed female Typhlodromus pyri Scheuten 6 assessed as mortality at 17.5 mg/l sprayed on leaf disks measured after 3 days. The conditions noted are these: Scheuten 6, foliar, 72 h.
Experiment [16] concerns Typhlodromus pyri. Kind of experiment: Miticidal activity against compound treated Phaseolus vulgaris leaf-fed female Typhlodromus pyri Scheuten 5 assessed as mortality at 17.5 mg/l sprayed on leaf disks measured after 3 days. The conditions noted are these: Scheuten 5, foliar, 72 h.
Experiment [17] relates to Typhlodromus pyri. Kind of experiment: Miticidal activity against compound treated Phaseolus vulgaris leaf-fed female Typhlodromus pyri Scheuten 13 assessed as mortality at 17.5 mg/l sprayed on leaf disks measured after 3 days. The note with it: Scheuten 13, foliar, 72 h.
Experiment [18] concerns Typhlodromus pyri. Kind of experiment: Miticidal activity against compound treated Phaseolus vulgaris leaf-fed female Typhlodromus pyri Scheuten 8 assessed as mortality at 17.5 mg/l sprayed on leaf disks measured after 3 days. The conditions noted are these: Scheuten 8, foliar, 72 h.
Experiment [19] has as its system Typhlodromus pyri. Kind of experiment: Miticidal activity against compound treated Phaseolus vulgaris leaf-fed female Typhlodromus pyri Scheuten 11 assessed as mortality at 17.5 mg/l sprayed on leaf disks measured after 3 days. The conditions noted are these: Scheuten 11, foliar, 72 h.
In experiment [20] the test system is Typhlodromus pyri. Kind of experiment: Miticidal activity against compound treated Phaseolus vulgaris leaf-fed female Typhlodromus pyri Scheuten 12 assessed as mortality at 17.5 mg/l sprayed on leaf disks measured after 3 days. The conditions noted are these: Scheuten 12, foliar, 72 h.
The subject of experiment [21] is Typhlodromus pyri. Kind of experiment: Miticidal activity against compound treated Phaseolus vulgaris leaf-fed female Typhlodromus pyri Scheuten 2 assessed as mortality at 17.5 mg/l sprayed on leaf disks measured after 3 days. The note with it: Scheuten 2, foliar, 72 h.
For experiment [22], the system named is Typhlodromus pyri. Briefly: Miticidal activity against compound treated Phaseolus vulgaris leaf-fed female Typhlodromus pyri Scheuten 9 assessed as mortality at 17.5 mg/l sprayed on leaf disks measured after 3 days. The note with it: Scheuten 9, foliar, 72 h.
The subject of experiment [23] is Typhlodromus pyri. Kind of experiment: Miticidal activity against compound treated Phaseolus vulgaris leaf-fed female Typhlodromus pyri Scheuten 10 assessed as mortality at 17.5 mg/l sprayed on leaf disks measured after 3 days. The conditions noted are these: Scheuten 10, foliar, 72 h.
Experiment [24] has as its system Typhlodromus pyri. Kind of experiment: Miticidal activity against compound treated Phaseolus vulgaris leaf-fed female Typhlodromus pyri Scheuten 7 assessed as mortality at 17.5 mg/l sprayed on leaf disks measured after 3 days. The conditions noted are these: Scheuten 7, foliar, 72 h.
For experiment [25], the system named is Typhlodromus pyri. Briefly: Miticidal activity against compound treated Phaseolus vulgaris leaf-fed female Typhlodromus pyri Scheuten 1 assessed as mortality at 17.5 mg/l sprayed on leaf disks measured after 3 days. The note with it: Scheuten 1, foliar, 72 h.
Experiment [26] has as its system Typhlodromus pyri. Briefly: Miticidal activity against compound treated Phaseolus vulgaris leaf-fed female Typhlodromus pyri Scheuten 3 assessed as mortality at 17.5 mg/l sprayed on leaf disks measured after 3 days. The conditions noted are these: Scheuten 3, foliar, 72 h.

The term mortality denotes the percentage killed.

On to `CCOP(=S)(OCC)Oc1nc(Cl)c(Cl)cc1Cl` [CHLORPYRIFOS], for which the mortality at 855 µg/mL in the experiment on Typhlodromus pyri [1] is 23.6%; in the experiment on Typhlodromus pyri [2], 40.9%; with Typhlodromus pyri [3], 33.3%; in the experiment with Typhlodromus pyri [4], 56.2%; in the experiment on Typhlodromus pyri [5], 74%; in the experiment with Typhlodromus pyri [6] it was 8.3%. In addition, the mortality at 855 µg/mL was 25.9% in the experiment with Typhlodromus pyri [7]; 7.9% in the experiment on Typhlodromus pyri [8]; 7.6% with Typhlodromus pyri [9]; 55.5% in the experiment on Typhlodromus pyri [10]; 10.4% in the experiment on Typhlodromus pyri [11]; 32.5% in the experiment on Typhlodromus pyri [12]. Also, in the experiment with Typhlodromus pyri [13], the mortality at 855 µg/mL stood at 41.1%.
For `CC1(C)[C@H](C(=O)O[C@H](C#N)c2cccc(Oc3ccccc3)c2)[C@@H]1C=C(Br)Br` [DELTAMETHRIN], the mortality at 17.5 µg/mL worked out at 84.3% in the experiment with Typhlodromus pyri [14]; 5.3% in the experiment with Typhlodromus pyri [15]; 86.1% with Typhlodromus pyri [16]; 75% with Typhlodromus pyri [17]; 31.2% in the experiment with Typhlodromus pyri [18]; 62.9% in the experiment with Typhlodromus pyri [19]. The mortality at 17.5 µg/mL with Typhlodromus pyri [20] stood at 20.6%; with Typhlodromus pyri [21] it was 92%; with Typhlodromus pyri [22], 74%; in the experiment with Typhlodromus pyri [23], 100%; in the experiment on Typhlodromus pyri [24], 23.6%; with Typhlodromus pyri [25], 90.2%. In addition, in the experiment on Typhlodromus pyri [26], the mortality at 17.5 µg/mL stood at 61.8%.
